This note sets out measurements from ChEMBL document CHEMBL4043296 (J Med Chem, 2018).

pKi: −log10 of the molar value.

Data set [1] in a line: AUClast in CD1 mouse brain at 3 mg/kg, sc by UPLC-MS analysis. In kind it is ADME, organism-based. Further details: dose 3 mg/kg, time 0 - last, route subcutaneous.
For another data set, the system named is Brain. Briefly: fAUClast in CD1 mouse brain at 3 mg/kg, sc by UPLC-MS analysis. In kind it is ADME, organism-based. As to conditions: in vivo.
In data set [2] the target is T1, Alpha-1A adrenergic receptor (Homo sapiens, UniProt P35348).
T1 sequence (P35348 whole entry): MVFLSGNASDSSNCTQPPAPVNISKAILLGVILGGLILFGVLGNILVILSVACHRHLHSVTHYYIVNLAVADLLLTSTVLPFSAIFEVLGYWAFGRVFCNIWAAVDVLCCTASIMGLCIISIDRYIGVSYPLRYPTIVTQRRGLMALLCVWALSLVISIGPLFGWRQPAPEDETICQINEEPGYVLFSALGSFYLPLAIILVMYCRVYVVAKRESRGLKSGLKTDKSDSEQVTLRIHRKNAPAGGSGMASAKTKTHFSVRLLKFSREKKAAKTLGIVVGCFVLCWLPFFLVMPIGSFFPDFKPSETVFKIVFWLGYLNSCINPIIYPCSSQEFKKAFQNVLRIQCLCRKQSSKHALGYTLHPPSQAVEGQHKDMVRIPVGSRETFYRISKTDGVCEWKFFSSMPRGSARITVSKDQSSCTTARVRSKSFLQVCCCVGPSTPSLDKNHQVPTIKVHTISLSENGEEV
Briefly: Displacement of [3H]prazosin from human recombinant alpha-1A adrenergic receptor expressed in CHO cell membranes after 30 mins by liquid scintillation counting method. (In a radioligand displacement assay an active substance lowers the binding of a labelled ligand.)

In data set [3] the target is Sigma non-opioid intracellular receptor 1 (Cavia porcellus, UniProt Q60492). Briefly: Displacement of [3H](+)-pentazocine from sigma1 receptor in Hartley guinea pig brain cortex after 120 mins by scintillation counting method.
Chain of Sigma non-opioid intracellular receptor 1 (Q60492 whole entry): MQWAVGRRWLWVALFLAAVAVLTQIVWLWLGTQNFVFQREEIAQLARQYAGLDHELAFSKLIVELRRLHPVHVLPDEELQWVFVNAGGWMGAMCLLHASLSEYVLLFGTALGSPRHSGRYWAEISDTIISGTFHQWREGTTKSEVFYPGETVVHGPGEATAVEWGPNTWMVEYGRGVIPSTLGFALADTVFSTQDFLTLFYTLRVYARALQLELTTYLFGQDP
Data set [4] concerns the target T2, Muscarinic acetylcholine receptor M5 (Homo sapiens, UniProt P08912).
T2 sequence (P08912 whole entry): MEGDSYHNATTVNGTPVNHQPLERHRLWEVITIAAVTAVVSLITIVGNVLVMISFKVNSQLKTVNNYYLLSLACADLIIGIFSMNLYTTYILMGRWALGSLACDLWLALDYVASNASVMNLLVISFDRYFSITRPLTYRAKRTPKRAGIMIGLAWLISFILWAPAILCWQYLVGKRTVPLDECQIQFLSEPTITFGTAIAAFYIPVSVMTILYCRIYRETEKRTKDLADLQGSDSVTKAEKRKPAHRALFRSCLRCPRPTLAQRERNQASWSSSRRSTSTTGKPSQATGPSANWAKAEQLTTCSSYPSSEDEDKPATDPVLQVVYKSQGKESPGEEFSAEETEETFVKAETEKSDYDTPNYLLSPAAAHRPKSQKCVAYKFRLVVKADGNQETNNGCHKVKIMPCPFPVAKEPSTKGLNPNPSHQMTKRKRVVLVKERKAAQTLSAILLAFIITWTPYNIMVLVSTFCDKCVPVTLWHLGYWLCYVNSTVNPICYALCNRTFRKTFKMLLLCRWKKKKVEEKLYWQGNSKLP
Briefly: Displacement of [3H]NMS from human muscarinic M5 receptor expressed in CHO cell membranes after 2 hrs by liquid scintillation counting method.

A short description of data set [5]: Fraction unbound in mouse brain at 5 uM by equilibrium dialysis method. The class given is ADME, tissue-based.
Another data set concerns the target D(3) dopamine receptor (Homo sapiens, UniProt P35462). Briefly: Displacement of [3H]N-methylspiperone from human dopamine D3 receptor expressed in HEK293 cell membranes after 1 hr by scintillation counting method.
Data set [6] can be described thus: Cmax in CD1 mouse brain at 3 mg/kg, sc after 0.25 hrs by UPLC-MS analysis. The class given is ADME, organism-based. Further details: dose 3 mg/kg, route subcutaneous.
The target in the next data set is T3, D(4) dopamine receptor (Homo sapiens, UniProt P21917).
T3 sequence (P21917 whole entry): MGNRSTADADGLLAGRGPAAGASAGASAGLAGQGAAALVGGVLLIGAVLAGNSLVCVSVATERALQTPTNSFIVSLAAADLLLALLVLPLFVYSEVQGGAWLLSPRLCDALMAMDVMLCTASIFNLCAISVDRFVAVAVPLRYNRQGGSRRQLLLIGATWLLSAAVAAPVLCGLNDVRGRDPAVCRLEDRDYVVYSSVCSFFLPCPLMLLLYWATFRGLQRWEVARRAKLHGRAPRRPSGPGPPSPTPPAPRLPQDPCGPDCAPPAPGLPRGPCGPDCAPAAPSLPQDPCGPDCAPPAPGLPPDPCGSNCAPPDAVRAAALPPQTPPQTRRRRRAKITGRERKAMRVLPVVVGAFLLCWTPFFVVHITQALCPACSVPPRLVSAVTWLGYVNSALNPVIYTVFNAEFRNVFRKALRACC
The data set is described as follows: Displacement of [3H]N-methylspiperone from human dopamine D4 receptor expressed in HEK293 cell membranes after 1 hr by scintillation counting method.

The nature of data set [7]: Fraction unbound in mouse plasma at 0.5 uM by equilibrium dialysis method. In kind it is ADME, cell-free.
A short description of data set [8]: Tmax in CD1 mouse plasma at 3 mg/kg, sc by UPLC-MS analysis. In kind it is ADME, organism-based.
The target in data set [9] is T4, Muscarinic acetylcholine receptor M2 (Homo sapiens, UniProt P08172).
T4 sequence (P08172 whole entry): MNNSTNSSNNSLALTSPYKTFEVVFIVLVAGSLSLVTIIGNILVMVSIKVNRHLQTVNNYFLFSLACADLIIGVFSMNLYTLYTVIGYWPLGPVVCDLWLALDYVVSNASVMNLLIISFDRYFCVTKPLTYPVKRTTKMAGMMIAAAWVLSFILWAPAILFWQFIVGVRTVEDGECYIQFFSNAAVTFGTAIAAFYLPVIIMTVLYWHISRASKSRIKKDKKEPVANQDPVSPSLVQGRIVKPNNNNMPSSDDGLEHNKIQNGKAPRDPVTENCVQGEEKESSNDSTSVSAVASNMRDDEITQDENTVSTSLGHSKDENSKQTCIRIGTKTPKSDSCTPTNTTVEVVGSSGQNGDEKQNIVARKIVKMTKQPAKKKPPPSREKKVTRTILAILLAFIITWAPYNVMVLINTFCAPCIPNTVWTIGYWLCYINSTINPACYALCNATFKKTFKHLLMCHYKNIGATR
The data set is described as follows: Displacement of [3H]NMS from human muscarinic M2 receptor expressed in CHO cell membranes after 2 hrs by liquid scintillation counting method.

Chain of D(3) dopamine receptor (P35462 whole entry): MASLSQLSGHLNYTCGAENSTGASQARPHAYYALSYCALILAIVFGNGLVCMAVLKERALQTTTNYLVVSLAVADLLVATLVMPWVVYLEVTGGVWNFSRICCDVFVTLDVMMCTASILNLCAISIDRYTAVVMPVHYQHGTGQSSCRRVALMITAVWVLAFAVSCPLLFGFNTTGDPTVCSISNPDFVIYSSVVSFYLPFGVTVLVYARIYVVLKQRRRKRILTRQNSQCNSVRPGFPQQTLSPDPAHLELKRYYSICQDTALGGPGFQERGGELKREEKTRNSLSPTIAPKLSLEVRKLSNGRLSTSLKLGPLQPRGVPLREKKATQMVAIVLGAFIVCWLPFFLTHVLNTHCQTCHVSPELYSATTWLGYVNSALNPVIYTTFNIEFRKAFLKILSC

As usually defined, the AUC(0-t) is the area under the concentration-time curve up to a stated or last time point. Read a high AUC(0-t) as more exposure. Broadly, the pKi is the negative decadic logarithm of the Ki, by convention in mol/L. Usually fraction unbound stands for the share of the substance not bound to proteins or other matrix. As usually defined, the Cmax is the peak of the concentration-time curve. The Tmax is the time from dosing to the highest level. In data set [1], `O=C1CCc2ccccc2N1CCCN1CCN(c2ccccc2)CC1` displayed an AUC(0-t) of 2380 ng·h/mL. Besides, in the data set with Brain, the fAUClast was determined as 204 ng·h/mL. In addition, the pKi in [2] is 7.27; in [3] it was 6.57; in data set [4], 4.56; on D(3) dopamine receptor, 5.88; at D(4) dopamine receptor, 8.54; in data set [9] it was 4.78. This molecule displayed a fraction unbound at 5 µM in [5] of 0.086. In data set [6], this molecule registered a Cmax of 2050 ng/g. The molecule further registered a fraction unbound at 0.5 µM in [7] of 0.097. Also, the Tmax in data set [8] was found to be 15 min.
Turning to `O=C1CCc2ccccc2N1CCCN1CCC(Cc2ccccc2)CC1`, the pKi in [2] is 6.59; in data set [3] it was 8.00; in data set [4] it was 5.43; on D(3) dopamine receptor, 5.74; on D(4) dopamine receptor, 8.90; in [9], 6.10. This molecule had a fraction unbound at 5 µM in data set [5] of 0.051. The fraction unbound at 0.5 µM in data set [7] was determined as 0.1.
